Reference: paper PMC9116242 (Journal of Enzyme Inhibition and Medicinal Chemistry, 2022)

How the values were obtained:
[1] = PAMPA-BBB permeation assay; settings: Table 3
PC12 cells = assay: Neuroprotective effect against Aβ1-42-induced PC12 cell injury, MTT assay; format: cell-based; settings: 25 μM Aβ1-42 for 48 h, compound at 5 and 10 μM
[2] = In vivo PET-CT imaging with [11C]5f in mice; settings: blocker 1.0 mg/kg 5 min before the radiotracer, compared with baseline
[3] = system: TNF-α production in LPS-induced BV-2 cells; assay: LPS-induced TNF-α production in BV-2 cells, ELISA; format: cell-based; settings: for Level of TNF-α production: BV-2 cells, 1.0 μg/mL LPS; for inhibition at 5 µM: Mus musculus, BV-2, read-out: Inhibitory rate of TNF-α production
[4] = system: NO production in LPS-induced BV-2 cells; assay: NO release in BV-2 cells and LPS-stimulated BV-2 cells, Griess reaction; format: cell-based; settings: 5 and 10 μM
BV-2 cells = assay: Cytotoxicity on BV-2 cells, MTT assay; format: cell-based; settings: 5 and 10 μM
huMAO-B = target: T1, huMAO-B (Homo sapiens, UniProt P27338); assay: Kinetic study against huMAO-B, Lineweaver-Burk plots; format: biochemical; settings: 5a at 0.15, 0.3 and 0.6 μM
T1 sequence (P27338 1-520): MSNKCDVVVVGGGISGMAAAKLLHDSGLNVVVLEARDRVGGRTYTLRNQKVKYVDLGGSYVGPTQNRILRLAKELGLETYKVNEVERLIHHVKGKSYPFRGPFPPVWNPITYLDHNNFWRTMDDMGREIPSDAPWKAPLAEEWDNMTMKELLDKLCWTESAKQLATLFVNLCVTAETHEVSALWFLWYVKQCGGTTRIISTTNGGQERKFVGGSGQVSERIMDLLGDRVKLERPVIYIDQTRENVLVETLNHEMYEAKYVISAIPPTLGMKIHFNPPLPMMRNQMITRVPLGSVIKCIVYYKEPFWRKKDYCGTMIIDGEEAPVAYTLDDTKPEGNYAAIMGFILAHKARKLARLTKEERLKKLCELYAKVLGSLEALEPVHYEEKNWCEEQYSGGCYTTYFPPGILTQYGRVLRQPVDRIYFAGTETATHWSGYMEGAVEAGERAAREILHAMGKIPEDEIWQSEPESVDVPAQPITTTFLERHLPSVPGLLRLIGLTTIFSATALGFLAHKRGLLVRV

Row | SMILES | Pe [1] [×10⁻⁶ cm/s] | Cell viability, Aβ1-42-induced PC12 cell injury (in words) (PC12 cells) | Radio-uptake decrease of [11C]5f in the brain after pre-treatment (blocking) [2] [%] | Level of TNF-α production ([3]; compound at 5 μM) [pg/mL] | Level of TNF-α production ([3]; compound at 10 μM) [pg/mL] | inhibition at 5 µM [3] [%] | Effect on release of NO in BV-2 cells without LPS [4] | Cytotoxicity on BV-2 cells (cell viability) (BV-2 cells) | Type of MAO-B inhibition (huMAO-B)
1 | COc1ccc(/C=C/C(=O)N2CCc3ccccc3C2)cc1OC [Compound 5f, (E)-1-(3,4-dihydroisoquinolin-2(1H)-yl)-3-(3,4-dimethoxyphenyl)prop-2-en-1-one] | 20.4 | gradually increased in a dose-dependent manner | ~35 | 750 | 455 | 55.9 | did not produce an effect on the release of NO | non-toxic | 
2 | CCN(C)C(=O)Oc1cccc([C@H](C)N(C)C)c1 [Rivastigmine, reference compound] |  |  | ~35 |  |  |  |  |  | 
3 | COc1cc(/C=C/C(=O)N2CCc3ccccc3C2)ccc1OC1CCCCC1 [Compound 5h, (E)-3-(4-(cyclohexyloxy)-3-methoxyphenyl)-1-(3,4-dihydroisoquinolin-2(1H)-yl)prop-2-en-1-one] | 16.7 | gradually increased in a dose-dependent manner |  | 740 | 435 | 56.5 | did not produce an effect on the release of NO | non-toxic | 
4 | C#CCOc1ccc(/C=C/C(=O)N2CCc3ccccc3C2)cc1OC [Compound 5e, (E)-1-(3,4-dihydroisoquinolin-2(1H)-yl)-3-(3-methoxy-4-(prop-2-yn-1-yloxy)phenyl)prop-2-en-1-one] | 12.5 | gradually increased in a dose-dependent manner |  | 805 | 550 | 52.6 | did not produce an effect on the release of NO | non-toxic | 
5 | COc1cc(/C=C/C(=O)N2CCC(Cc3ccccc3)CC2)ccc1OC1CCCCC1 [Compound 5d, (E)-1-(4-benzylpiperidin-1-yl)-3-(4-(cyclohexyloxy)-3-methoxyphenyl)prop-2-en-1-one] | 18.2 | gradually increased in a dose-dependent manner |  | 780 | 460 | 54.1 | did not produce an effect on the release of NO | non-toxic | 
6 | C#CCOc1ccc(/C=C/C(=O)N2CCC(Cc3ccccc3)CC2)cc1OC [Compound 5a, (E)-1-(4-benzylpiperidin-1-yl)-3-(3-methoxy-4-(prop-2-yn-1-yloxy)phenyl)prop-2-en-1-one] | 14.7 |  |  | 820 | 520 | 51.7 | did not produce an effect on the release of NO | non-toxic | competitive
